Assay results reported in patent US5073540A, “Composite binding site drugs” (Receptron, priority 1989, dated 1991).
Where a SMILES comes first, the peptide text is derived from it.

What was measured:
[1] = target: T1, purified human IR (Homo sapiens, UniProt P06213); assay: IR autophosphorylation (tyrosine kinase activity of purified insulin receptor); type: biochemical; details: for EC50: insulin-induced, 95% confidence intervals printed: K^k 2.2-7.2 μM, D^k 0.3-2.2 μM; for inhibition of basal activity of IR: no insulin added
T1 construct: from tissue; host or cells: human placenta
Experimental: When peptide was used, it was added in 5.0 μl, the volume adjusted to 20 μl by adding buffer, and the mixture incubated (1 hr, 4° C.). After incubation, 10 μl of a solution containing 2.5 μCi ^32 P-labeled ATP (3,000 Ci/mmol; γ-labeled; Amersham), 50 mM HEPES, pH 7.6, 150 mM NaCl, 0.1% Triton X-100, 37.5 μM unlabeled ATP, 15 mM MgCl2, and 6 MnCl2 was added to a final volume of 30 μl. The mixture was then incubated for 30 min. at 24° C.
After incubation, 15 μl sample buffer was added, and the sample was boiled for 5 min., and run on 10% SDS-PAGE overnight. The gel was dried, and autoradiograms processed with an exposure time of 5-10 hr. For quantitative estimates the β-subunit band of IR and the IRKD bands were cut out and counted dry (Cerenkov) in a scintillation counter.

[2] = Peptide depletion (degradation or adsorption) during the experimental period, by HPLC and 125I-label; type: physicochemical; details: HPLC and 125I-labeled peptide; concentrations above 0.1 μM

T1 sequence (P06213 28-758 limits assumed): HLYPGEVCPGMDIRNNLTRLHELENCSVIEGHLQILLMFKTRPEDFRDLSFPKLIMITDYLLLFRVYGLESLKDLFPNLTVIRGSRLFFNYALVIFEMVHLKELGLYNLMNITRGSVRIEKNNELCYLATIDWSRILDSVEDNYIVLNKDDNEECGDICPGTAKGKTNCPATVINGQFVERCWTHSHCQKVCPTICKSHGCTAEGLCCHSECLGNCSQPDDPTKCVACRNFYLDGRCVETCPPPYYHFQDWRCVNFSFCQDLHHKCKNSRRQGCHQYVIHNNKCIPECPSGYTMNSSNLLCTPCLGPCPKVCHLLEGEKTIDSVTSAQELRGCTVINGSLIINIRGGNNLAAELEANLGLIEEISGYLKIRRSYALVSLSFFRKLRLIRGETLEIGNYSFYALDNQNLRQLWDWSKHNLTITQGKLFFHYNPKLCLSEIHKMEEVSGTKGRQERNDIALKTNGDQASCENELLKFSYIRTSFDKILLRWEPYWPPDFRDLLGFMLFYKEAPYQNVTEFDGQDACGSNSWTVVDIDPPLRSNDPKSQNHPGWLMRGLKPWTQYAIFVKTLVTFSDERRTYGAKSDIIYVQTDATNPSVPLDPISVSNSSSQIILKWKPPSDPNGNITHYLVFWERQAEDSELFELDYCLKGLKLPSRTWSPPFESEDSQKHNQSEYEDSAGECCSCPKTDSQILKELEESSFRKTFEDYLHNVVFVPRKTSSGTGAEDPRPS
T1 sequence (P06213 763-1382 limits assumed): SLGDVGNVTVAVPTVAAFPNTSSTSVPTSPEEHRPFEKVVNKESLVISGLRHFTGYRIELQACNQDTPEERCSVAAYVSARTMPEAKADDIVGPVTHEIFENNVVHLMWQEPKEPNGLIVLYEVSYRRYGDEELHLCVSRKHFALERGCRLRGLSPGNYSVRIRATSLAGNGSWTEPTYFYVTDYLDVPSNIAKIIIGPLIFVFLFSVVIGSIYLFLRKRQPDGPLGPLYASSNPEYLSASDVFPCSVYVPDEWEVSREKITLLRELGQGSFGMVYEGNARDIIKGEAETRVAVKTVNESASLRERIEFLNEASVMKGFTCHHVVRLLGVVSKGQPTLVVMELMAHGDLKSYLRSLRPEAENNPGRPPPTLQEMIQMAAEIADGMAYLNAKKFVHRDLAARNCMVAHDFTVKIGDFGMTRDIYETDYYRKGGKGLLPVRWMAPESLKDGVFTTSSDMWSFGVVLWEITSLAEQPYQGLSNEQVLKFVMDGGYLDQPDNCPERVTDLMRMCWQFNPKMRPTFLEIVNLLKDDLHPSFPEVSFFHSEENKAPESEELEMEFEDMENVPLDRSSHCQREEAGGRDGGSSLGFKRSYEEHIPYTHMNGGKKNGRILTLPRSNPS

| Compound | EC50 [1] | inhibition of basal activity of IR [1] | depletion (degradation or adsorption) during the experimental period [2] |
| --- | --- | --- | --- |
| CC[C@H](C)[C@H](NC(=O)[C@H](CCC(N)=O)NC(=O)[C@@H](NC(=O)[C@H](CCC(=O)O)NC(=O)[C@H](CCCNC(=N)N)NC(=O)[C@@H](N)CCC(=O)O)[C@@H](C)O)C(=O)N[C@@H](C)C(=O)N[C@@H](CCCCN)C(=O)NCC(=O)N[C@@H](CC(N)=O)C(=O)N[C@@H](CCC(=O)O)C(=O)N[C@@H](CCC(N)=O)C(=O)N[C@@H](CO)C(=O)N[C@@H](Cc1ccccc1)C(=O)N[C@@H](CCCNC(=N)N)C(=O)N[C@H](C(=O)N[C@@H](CC(=O)O)C(=O)N[C@@H](CC(C)C)C(=O)N[C@@H](CCCNC(=N)N)C(=O)N[C@H](C(=O)N[C@@H](CC(C)C)C(=O)N[C@@H](CC(C)C)C(=O)N[C@@H](CCCNC(=N)N)C(=O)N[C@@H](Cc1ccc(O)cc1)C(=O)N[C@@H](Cc1ccc(O)cc1)C(=O)O)[C@@H](C)O)C(C)C [D^k-(61-85), ERETQIAKGNEQSFRVDLRTLLRYY] (H-ERETQIAKGNEQSFRVDLRTLLRYY-OH) | 1200 nM | 24-40% | – |
| CC[C@H](C)[C@H](NC(=O)[C@H](CCC(N)=O)NC(=O)[C@@H](NC(=O)[C@H](CC(N)=O)NC(=O)[C@H](CCCNC(=N)N)NC(=O)[C@@H](N)CCC(=O)O)[C@@H](C)O)C(=O)N[C@@H](C)C(=O)N[C@@H](CCCCN)C(=O)NCC(=O)N[C@@H](CC(N)=O)C(=O)N[C@@H](CCC(=O)O)C(=O)N[C@@H](CCC(N)=O)C(=O)N[C@H](C(=O)N[C@@H](Cc1ccccc1)C(=O)N[C@@H](CCCNC(=N)N)C(=O)N[C@H](C(=O)N[C@@H](CC(N)=O)C(=O)N[C@@H](CC(C)C)C(=O)N[C@@H](CCCNC(=N)N)C(=O)N[C@H](C(=O)N[C@@H](C)C(=O)N[C@@H](CC(C)C)C(=O)N[C@@H](CCCNC(=N)N)C(=O)N[C@@H](Cc1ccc(O)cc1)C(=O)N[C@@H](Cc1ccc(O)cc1)C(=O)O)[C@@H](C)O)C(C)C)[C@@H](C)CC [K^k-(61-85)] (H-ERNTQIAKGNEQIFRVNLRTALRYY-OH) | 4000 nM | 24-40% | – |
| dynorphin A | – | – | No significant depletion |
